The source made the active and inactive calls.
Tests used:
[1] = target: T1, Androgen receptor (Homo sapiens) (UniProt P10275); conditions: MDA-kb2
T1 sequence (whole entry): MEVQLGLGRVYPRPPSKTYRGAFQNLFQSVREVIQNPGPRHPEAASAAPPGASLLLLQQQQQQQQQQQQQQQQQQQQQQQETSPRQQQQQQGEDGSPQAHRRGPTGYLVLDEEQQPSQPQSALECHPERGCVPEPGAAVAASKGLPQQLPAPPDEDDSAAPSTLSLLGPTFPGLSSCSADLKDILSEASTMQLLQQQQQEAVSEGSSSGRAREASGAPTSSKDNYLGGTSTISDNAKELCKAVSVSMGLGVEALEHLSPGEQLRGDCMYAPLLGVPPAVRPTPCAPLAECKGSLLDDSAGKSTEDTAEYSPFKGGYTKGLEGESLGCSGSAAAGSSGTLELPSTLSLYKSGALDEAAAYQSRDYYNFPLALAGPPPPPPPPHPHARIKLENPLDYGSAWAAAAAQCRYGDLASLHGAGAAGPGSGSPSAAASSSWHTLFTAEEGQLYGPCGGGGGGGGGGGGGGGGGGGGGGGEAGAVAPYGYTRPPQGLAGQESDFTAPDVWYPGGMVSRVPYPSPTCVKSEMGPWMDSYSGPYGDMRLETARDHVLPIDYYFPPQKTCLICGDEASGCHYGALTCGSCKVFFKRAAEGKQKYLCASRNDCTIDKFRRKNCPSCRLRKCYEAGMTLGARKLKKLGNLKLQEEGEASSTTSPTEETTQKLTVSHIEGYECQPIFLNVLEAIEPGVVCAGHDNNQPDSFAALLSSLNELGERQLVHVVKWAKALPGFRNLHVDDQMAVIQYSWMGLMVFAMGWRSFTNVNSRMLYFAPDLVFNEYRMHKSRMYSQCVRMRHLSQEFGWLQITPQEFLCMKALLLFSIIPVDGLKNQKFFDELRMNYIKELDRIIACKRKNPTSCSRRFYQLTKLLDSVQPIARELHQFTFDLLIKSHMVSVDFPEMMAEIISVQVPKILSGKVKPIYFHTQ
Description: Agonist activity at androgen receptor in human MDA-kb2 cells assessed as stimulation of luciferase activity by luciferase reporter gene assay

[2] = target: T2, Glucocorticoid receptor (Homo sapiens) (UniProt P04150); conditions: MDA-kb2
T2 sequence (whole entry): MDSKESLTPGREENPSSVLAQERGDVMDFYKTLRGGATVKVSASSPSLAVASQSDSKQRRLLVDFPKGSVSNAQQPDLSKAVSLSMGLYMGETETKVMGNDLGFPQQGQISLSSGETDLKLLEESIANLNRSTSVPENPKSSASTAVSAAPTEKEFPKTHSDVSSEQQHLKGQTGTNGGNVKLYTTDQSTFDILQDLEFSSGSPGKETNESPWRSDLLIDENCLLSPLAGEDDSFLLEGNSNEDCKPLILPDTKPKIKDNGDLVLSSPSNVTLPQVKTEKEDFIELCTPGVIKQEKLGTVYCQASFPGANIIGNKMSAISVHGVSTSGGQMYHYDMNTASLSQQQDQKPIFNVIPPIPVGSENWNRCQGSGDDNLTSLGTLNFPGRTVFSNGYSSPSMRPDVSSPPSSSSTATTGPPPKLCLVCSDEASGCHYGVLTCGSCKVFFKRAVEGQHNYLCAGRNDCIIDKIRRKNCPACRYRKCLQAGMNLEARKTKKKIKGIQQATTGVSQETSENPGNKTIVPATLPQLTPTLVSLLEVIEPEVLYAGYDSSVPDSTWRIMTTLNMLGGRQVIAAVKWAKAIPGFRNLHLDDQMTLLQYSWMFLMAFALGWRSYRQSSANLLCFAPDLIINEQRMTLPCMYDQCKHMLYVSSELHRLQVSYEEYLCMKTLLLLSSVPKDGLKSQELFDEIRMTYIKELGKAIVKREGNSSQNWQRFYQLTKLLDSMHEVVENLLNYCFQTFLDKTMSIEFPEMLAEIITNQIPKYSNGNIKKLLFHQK

[3] = target: T2, Glucocorticoid receptor (Homo sapiens); experiment: Agonist activity at glucocorticoid receptor in human MDA-kb2 cells assessed as stimulation of luciferase activity by luciferase reporter gene assay in presence of glucocorticoid receptor agonist Dex; format: functional, cell-based
Androgen receptor [4] = target: T3, Androgen receptor (Homo sapiens, UniProt P10275); experiment: Antagonist activity at androgen receptor in human MDA-kb2 cells assessed as inhibition of DHT-induced luciferase activity by luciferase reporter gene assay
T3 sequence (P10275 whole entry): T1 sequence (whole entry)

[5] = target: T1, Androgen receptor (Homo sapiens); conditions: MDA-kb2; remark: listed apart in the source
Description: Agonist activity at androgen receptor in human MDA-kb2 cells assessed as stimulation of luciferase activity at 100 uM by luciferase reporter gene assay

[6] = target: T2, Glucocorticoid receptor (Homo sapiens); conditions: MDA-kb2; remark: listed apart in the source
Description: Agonist activity at glucocorticoid receptor in human MDA-kb2 cells assessed as stimulation of luciferase activity at 100 uM by luciferase reporter gene assay

[7] = target: T2, Glucocorticoid receptor (Homo sapiens); experiment: Ratio of compound EC150 to DHT EC150 glucocorticoid receptor in human MDA-kb2 cells; format: cell-based
[8] = target: T1, Androgen receptor (Homo sapiens); experiment: Ratio of compound EC150 to Dex EC150 for androgen receptor in human MDA-kb2 cells; format: cell-based
[9] = target: T2, Glucocorticoid receptor (Homo sapiens); experiment: Ratio of compound EC150 to Dex EC150 for glucocorticoid receptor in human MDA-kb2 cells; format: cell-based
[10] = target: T1, Androgen receptor (Homo sapiens); experiment: Ratio of compound EC150 to DHT EC150 for androgen receptor in human MDA-kb2 cells; format: cell-based
Androgen receptor [11] = target: T3, Androgen receptor; experiment: Antagonist activity at androgen receptor in human MDA-kb2 cells assessed as inhibition of DHT-induced luciferase activity at 100 uM by luciferase reporter gene assay; format: functional, cell-based
[12] = target: T2, Glucocorticoid receptor (Homo sapiens); experiment: Agonist activity at glucocorticoid receptor in human MDA-kb2 cells assessed as stimulation of luciferase activity by luciferase reporter gene assay in presence of androgen receptor agonist DHT; format: functional, cell-based
[13] = target: T2, Glucocorticoid receptor (Homo sapiens); experiment: Agonist activity at glucocorticoid receptor in human MDA-kb2 cells assessed as stimulation of luciferase activity at 0.03 mM by luciferase reporter gene assay in presence of androgen receptor agonist DHT; format: functional, cell-based

Structure (SMILES)	EC150 [1] [µM]	EC150 [2] [µM]	other results
O=c1cc(-c2ccc(O)c(O)c2)oc2cc(O)cc(O)c12	18	18	
O=c1cc(-c2ccccc2)oc2cc(O)c(O)c(O)c12	18.9	18.9	Activity [3]: Active
COc1ccc2oc(-c3ccccc3)c(O)c(=O)c2c1	10.3	10.3	
O=c1cc(-c2ccccc2)oc2ccc(Cl)cc12	12.6	12.6	
O=c1cc(-c2ccccc2)oc2cc(O)ccc12	3.1	3.1	
O=c1cc(-c2ccccc2)oc2cccc(O)c12	6	6	
COc1ccc2c(=O)cc(-c3ccccc3)oc2c1	21.9	21.9	
O=c1c(O)c(-c2ccccc2)oc2ccc(O)cc12		1.54	Activity [3]: Active
O=C1CC(c2ccccc2)Oc2ccccc21 (stereo not drawn) [FLAVANONE]	380	380	IC50 (Androgen receptor [4]): 20 µM
O=C1c2ccc(O)cc2OC(c2ccc(O)c(O)c2)C1O (stereo not drawn)			EC150 [5]: inactive; EC150 [6]: inactive
COc1ccc2oc(-c3ccccc3)cc(=O)c2c1	0.7	0.7	Ratio [7]: 1400; Ratio [8]: 3.6; Ratio [9]: 3.6; Ratio [10]: 1400
O=c1cc(-c2ccccc2)oc2ccccc12 [FLAVONE]	26.1	26.1	IC50 (Androgen receptor [4]): 5.9 µM; IC50 (Androgen receptor [4]; mda-kb2): 5.9 µM
O=c1c(O)c(-c2ccccc2)oc2ccccc12 [FLAVONOL]			IC50 (Androgen receptor [4]): 23.5 µM; EC150 [5]: inactive; EC150 [6]: inactive
C[C@]12CCC(=O)C[C@@H]1CC[C@@H]1[C@@H]2CC[C@]2(C)[C@@H](O)CC[C@@H]12		0.0005	
O=c1c(-c2ccc(O)cc2)coc2cc(O)ccc12 [DAIDZEIN]	10.1	10.1	AR antagonist activity at 100 uM (active/inactive) (Androgen receptor [11]): Not Active
O=C1CC(c2ccccc2)Oc2ccc(O)cc21 (stereo not drawn)			IC50 (Androgen receptor [4]): 3.3 µM; EC150 [5]: inactive; EC150 [6]: inactive
O=C1C[C@@H](c2ccc(O)cc2)Oc2cc(O)cc(O)c21			EC150 [5]: inactive; EC150 [6]: inactive
COc1ccc2c(c1)OC(c1ccccc1)CC2=O (stereo not drawn)			EC150 [5]: inactive; EC150 [6]: inactive
O=c1c(O)c(-c2ccccc2)oc2cc(O)cc(O)c12	633	633	
O=c1c(O)c(-c2ccc(O)c(O)c2)oc2cc(O)ccc12			EC150 [5]: inactive; EC150 [6]: inactive
Cc1ccc2oc(-c3ccccc3)cc(=O)c2c1	3.6	3.6	
COc1cc(O)c2c(=O)c(-c3ccc(O)cc3)coc2c1 [PRUNETIN]	3.2	3.2	AR antagonist activity at 100 uM (active/inactive) (Androgen receptor [11]): Not Active
O=c1cc(-c2ccccc2)oc2cc(O)cc(O)c12 [CHRYSIN]	1.5	1.5	Activity [12]: Active; AR antagonist activity at 100 uM (active/inactive) (Androgen receptor [11]): Active
COc1ccc(-c2cc(=O)c3c(O)cc(O)cc3o2)cc1	2.1	2.1	
COc1cccc2oc(-c3ccccc3)cc(=O)c12	5.5	5.5	IC50 (Androgen receptor [4]): 8.7 µM
COc1ccc2c(c1)C(=O)CC(c1ccccc1)O2 (stereo not drawn)		4.08	IC50 (Androgen receptor [4]): 39.5 µM
O=c1c(-c2ccc(O)cc2)coc2cc(O)cc(O)c12 [GENISTEIN]	4.4	4.4	IC50 (Androgen receptor [4]): 1300 µM; Ratio [7]: 10000; Ratio [8]: 23; Ratio [9]: 23; Ratio [10]: 10000
O=c1cc(-c2ccccc2)oc2ccc(O)cc12 [6-HYDROXYFLAVONE]	7.1	7.1	EC150 [3]: 4.1 µM; AR antagonist activity at 100 uM (active/inactive) (Androgen receptor [11]): Not Active; Activity [13]: inactive
